Reference: PubChem BioAssay (NCI)
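Cells were grown in 96-well plates and exposed to each compound for 48 hours at five concentrations; endpoints were interpolated linearly between bracketing concentrations, or set to the highest concentration if not reached. Abbreviation: GI50, concentration required for 50% inhibition of growth. The concentration for full growth arrest is given as TGI.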

Key:
Assay in all cases: NCI tumour cell line growth inhibition, 48 h
SW-620 colon = test system: SW-620 colon
SK-MEL-5 melanoma = test system: SK-MEL-5 melanoma
NCI-H23 lung = test system: NCI-H23 lung
EKVX NSCLC = test system: EKVX NSCLC
LOX IMVI melanoma = test system: LOX IMVI melanoma
HT29 colon = test system: HT29 colon
CAKI-1 renal = test system: CAKI-1 renal
MOLT-4 leukemia = test system: MOLT-4 leukemia
A498 renal = test system: A498 renal
T-47D breast = test system: T-47D breast
OVCAR-3 ovarian = test system: OVCAR-3 ovarian
RPMI-8226 leukemia = test system: RPMI-8226 leukemia
MDA-MB-435 = test system: MDA-MB-435
SF-268 CNS = test system: SF-268 CNS
ACHN renal = test system: ACHN renal
BT-549 breast = test system: BT-549 breast
A549 NSCLC = test system: A549 NSCLC
MCF7 breast = test system: MCF7 breast
IGROV1 ovarian = test system: IGROV1 ovarian
UACC-257 melanoma = test system: UACC-257 melanoma
SK-MEL-28 melanoma = test system: SK-MEL-28 melanoma
PC-3 prostate = test system: PC-3 prostate
MDA-MB-231 breast = test system: MDA-MB-231 breast
CCRF-CEM leukemia = test system: CCRF-CEM leukemia
U251 CNS = test system: U251 CNS
DU-145 prostate = test system: DU-145 prostate
HCT-116 colon = test system: HCT-116 colon
HL-60(TB) leukemia = test system: HL-60(TB) leukemia
SNB-75 CNS = test system: SNB-75 CNS
NCI-H226 lung = test system: NCI-H226 lung
SF-539 CNS = test system: SF-539 CNS
OVCAR-5 ovarian = test system: OVCAR-5 ovarian
UACC-62 melanoma = test system: UACC-62 melanoma
HS 578T breast = test system: HS 578T breast
RXF 393 renal = test system: RXF 393 renal
SN12C renal = test system: SN12C renal
M14 melanoma = test system: M14 melanoma
NCI/ADR-RES ovarian = test system: NCI/ADR-RES ovarian
NCI-H460 lung = test system: NCI-H460 lung
COLO 205 colon = test system: COLO 205 colon
TK-10 renal = test system: TK-10 renal
SK-MEL-2 melanoma = test system: SK-MEL-2 melanoma
SK-OV-3 ovarian = test system: SK-OV-3 ovarian
MDA-MB-468 breast = test system: MDA-MB-468 breast
MALME-3M melanoma = test system: MALME-3M melanoma
HCC-2998 colon = test system: HCC-2998 colon
OVCAR-4 ovarian = test system: OVCAR-4 ovarian
SR leukemia = test system: SR leukemia
SNB-19 CNS = test system: SNB-19 CNS
NCI-H522 lung = test system: NCI-H522 lung
UO-31 renal = test system: UO-31 renal
OVCAR-8 ovarian = test system: OVCAR-8 ovarian
HCT-15 colon = test system: HCT-15 colon
HOP-92 NSCLC = test system: HOP-92 NSCLC
HOP-62 NSCLC = test system: HOP-62 NSCLC
SF-295 CNS = test system: SF-295 CNS
K-562 leukemia = test system: K-562 leukemia
KM12 colon = test system: KM12 colon
786-0 renal = test system: 786-0 renal

SMILES: S=C(NCCc1ccccc1)Nc1ccc(OCc2nc3ccc(Cl)cc3[nH]2)cc1
- GI50 (SW-620 colon): 9.72 µM
- TGI (SW-620 colon): 22.7 µM
- GI50 (SK-MEL-5 melanoma): 12.7 µM
- TGI (SK-MEL-5 melanoma): 25.7 µM
- GI50 (NCI-H23 lung): 10.9 µM
- TGI (NCI-H23 lung): 23.7 µM
- GI50 (EKVX NSCLC): 7.97 µM
- TGI (EKVX NSCLC): 21.2 µM
- GI50 (LOX IMVI melanoma): 4.02 µM
- TGI (LOX IMVI melanoma): 16.1 µM
- GI50 (HT29 colon): 9.67 µM
- TGI (HT29 colon): 24.4 µM
- GI50 (CAKI-1 renal): 4.32 µM
- TGI (CAKI-1 renal): 17.7 µM
- GI50 (MOLT-4 leukemia): 2460 nM
- TGI (MOLT-4 leukemia): 7.51 µM
- GI50 (A498 renal): 10.4 µM
- TGI (A498 renal): 22.7 µM
- GI50 (T-47D breast): 5.61 µM
- TGI (T-47D breast): 25.3 µM
- GI50 (OVCAR-3 ovarian): 3.51 µM
- TGI (OVCAR-3 ovarian): 17.1 µM
- GI50 (RPMI-8226 leukemia): 4.54 µM
- TGI (RPMI-8226 leukemia): 45.5 µM
- GI50 (MDA-MB-435): 4.36 µM
- TGI (MDA-MB-435): 17.6 µM
- GI50 (SF-268 CNS): 11.1 µM
- TGI (SF-268 CNS): 27.1 µM
- GI50 (ACHN renal): 7.74 µM
- TGI (ACHN renal): 20.4 µM
- GI50 (BT-549 breast): 10.4 µM
- TGI (BT-549 breast): 22.5 µM
- GI50 (A549 NSCLC): 12.6 µM
- TGI (A549 NSCLC): 31.5 µM
- GI50 (MCF7 breast): 3.14 µM
- TGI (MCF7 breast): 15.5 µM
- GI50 (IGROV1 ovarian): 6.26 µM
- TGI (IGROV1 ovarian): 19.9 µM
- GI50 (UACC-257 melanoma): 13.7 µM
- TGI (UACC-257 melanoma): 27.4 µM
- GI50 (SK-MEL-28 melanoma): 12.6 µM
- TGI (SK-MEL-28 melanoma): 25.3 µM
- GI50 (PC-3 prostate): 6.8 µM
- TGI (PC-3 prostate): 22.9 µM
- GI50 (MDA-MB-231 breast): 5.75 µM
- TGI (MDA-MB-231 breast): 19.4 µM
- GI50 (CCRF-CEM leukemia): 3.06 µM
- TGI (CCRF-CEM leukemia): 14.8 µM
- GI50 (U251 CNS): 13.1 µM
- TGI (U251 CNS): 27.1 µM
- GI50 (DU-145 prostate): 12 µM
- TGI (DU-145 prostate): 25 µM
- GI50 (HCT-116 colon): 4.65 µM
- TGI (HCT-116 colon): 17.6 µM
- GI50 (HL-60(TB) leukemia): 1260 nM
- TGI (HL-60(TB) leukemia): 4.35 µM
- GI50 (SNB-75 CNS): 1630 nM
- TGI (SNB-75 CNS): 14.9 µM
- GI50 (NCI-H226 lung): 12.9 µM
- TGI (NCI-H226 lung): 35.5 µM
- GI50 (SF-539 CNS): 8.77 µM
- TGI (SF-539 CNS): 20.9 µM
- GI50 (OVCAR-5 ovarian): 11.5 µM
- TGI (OVCAR-5 ovarian): 23.6 µM
- GI50 (UACC-62 melanoma): 7.94 µM
- TGI (UACC-62 melanoma): 20.8 µM
- GI50 (HS 578T breast): 8.41 µM
- TGI (HS 578T breast): 31.9 µM
- GI50 (RXF 393 renal): 4.07 µM
- TGI (RXF 393 renal): 17.1 µM
- GI50 (SN12C renal): 6.28 µM
- TGI (SN12C renal): 20.1 µM
- GI50 (M14 melanoma): 9.53 µM
- TGI (M14 melanoma): 22 µM
- GI50 (NCI/ADR-RES ovarian): 7.15 µM
- TGI (NCI/ADR-RES ovarian): 25.5 µM
- GI50 (NCI-H460 lung): 4.31 µM
- TGI (NCI-H460 lung): 17.3 µM
- GI50 (COLO 205 colon): 12.4 µM
- TGI (COLO 205 colon): 28 µM
- GI50 (TK-10 renal): 13.8 µM
- TGI (TK-10 renal): 27.3 µM
- GI50 (SK-MEL-2 melanoma): 13.1 µM
- TGI (SK-MEL-2 melanoma): 26.2 µM
- GI50 (SK-OV-3 ovarian): 14.2 µM
- TGI (SK-OV-3 ovarian): 27.9 µM
- GI50 (MDA-MB-468 breast): 3.78 µM
- TGI (MDA-MB-468 breast): 17.4 µM
- GI50 (MALME-3M melanoma): 12.5 µM
- TGI (MALME-3M melanoma): 25.2 µM
- GI50 (HCC-2998 colon): 6.1 µM
- TGI (HCC-2998 colon): 20.4 µM
- GI50 (OVCAR-4 ovarian): 7 µM
- TGI (OVCAR-4 ovarian): 23.9 µM
- GI50 (SR leukemia): 2200 nM
- TGI (SR leukemia): 6.99 µM
- GI50 (SNB-19 CNS): 11.6 µM
- TGI (SNB-19 CNS): 23.8 µM
- GI50 (NCI-H522 lung): 2220 nM
- TGI (NCI-H522 lung): 7.02 µM
- GI50 (UO-31 renal): 3.37 µM
- TGI (UO-31 renal): 16 µM
- GI50 (OVCAR-8 ovarian): 11.9 µM
- TGI (OVCAR-8 ovarian): 30.4 µM
- GI50 (HCT-15 colon): 4.9 µM
- TGI (HCT-15 colon): 18 µM
- GI50 (HOP-92 NSCLC): 3.52 µM
- TGI (HOP-92 NSCLC): 17 µM
- GI50 (HOP-62 NSCLC): 14 µM
- TGI (HOP-62 NSCLC): 28.7 µM
- GI50 (SF-295 CNS): 7.08 µM
- TGI (SF-295 CNS): 21.7 µM
- GI50 (K-562 leukemia): 3.04 µM
- TGI (K-562 leukemia): 20 µM
- GI50 (KM12 colon): 10.5 µM
- TGI (KM12 colon): 23.6 µM
- GI50 (786-0 renal): 7.67 µM
- TGI (786-0 renal): 21.4 µM
